# ChEMBL document CHEMBL1201862, “PubChem BioAssay data set” (2004)
#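 Assay format: 96-well plates, 48-hour exposure. GI50 marks 50% less growth.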 Active and inactive are the calls of the source. Rule as the data show it: active = GI50 up to about 1.1 µM and inactive = higher.
# Assays:
# Experiment in all cases: inhibition of tumour cell growth, NCI panel, 48 h
# RXF 393 = tested on: RXF 393
# KM-20L2 = tested on: KM-20L2
# SF-268 = tested on: SF-268
# UO-31 = tested on: UO-31
# XF498 = tested on: XF498
# Malme-3M = tested on: Malme-3M
# LOX IMVI = tested on: LOX IMVI
# SK-MEL-2 = tested on: SK-MEL-2
# SK-MEL-28 = tested on: SK-MEL-28
# SN12C = tested on: SN12C
# UACC-62 = tested on: UACC-62
# IGROV-1 = tested on: IGROV-1
# SK-OV-3 = tested on: SK-OV-3
# EKVX = tested on: EKVX
# TK-10 = tested on: TK-10
# LXFL 529 = tested on: LXFL 529
# OVCAR-5 = tested on: OVCAR-5
# SF-295 = tested on: SF-295
# DMS-273 = tested on: DMS-273
# A498 = tested on: A498
# OVCAR-3 = tested on: OVCAR-3
# HCC 2998 = tested on: HCC 2998
# CCRF-CEM = tested on: CCRF-CEM
# HT-29 = tested on: HT-29
# SNB-19 = tested on: SNB-19
# SNB-78 = tested on: SNB-78
# HOP-92 = tested on: HOP-92
# SNB-75 = tested on: SNB-75
# DLD-1 = tested on: DLD-1
# RXF 631 = tested on: RXF 631
# MOLT-4 = tested on: MOLT-4
# SF-539 = tested on: SF-539
# HOP-18 = tested on: HOP-18
# HCT-116 = tested on: HCT-116
# SW-620 = tested on: SW-620
# SK-MEL-5 = tested on: SK-MEL-5
# CAKI-1 = tested on: CAKI-1
# UACC-257 = tested on: UACC-257
# A549 = tested on: A549
# DMS-114 = tested on: DMS-114
# M14 = tested on: M14
# HOP-62 = tested on: HOP-62
# 786-0 = tested on: 786-0
# COLO 205 = tested on: COLO 205
# U-251 = tested on: U-251
# K562 = tested on: K562
# OVCAR-4 = tested on: OVCAR-4
# HCT-15 = tested on: HCT-15
# NCI-H460 = tested on: NCI-H460
# RPMI-8226 = tested on: RPMI-8226
# NCI-H23 = tested on: NCI-H23
# OVCAR-8 = tested on: OVCAR-8
# NCI-H522 = tested on: NCI-H522
# M19-MEL = tested on: M19-MEL
# HL-60 = tested on: HL-60
# NCI-H226 = tested on: NCI-H226
# ACHN = tested on: ACHN
# SR = tested on: SR
# KM12 = tested on: KM12
smiles,measurement,setting,value
Nc1ccc(C(=O)N/C(=C\c2cccc([N+](=O)[O-])c2)c2nc3c4c(ccc3[nH]2)C(=O)c2ccccc2C4=O)cc1,GI50,RXF 393,10.1 µM (inactive)
same,GI50,KM-20L2,> 100 µM (inactive)
same,GI50,SF-268,2.94 µM (inactive)
same,GI50,UO-31,1.86 µM (inactive)
same,GI50,XF498,> 100 µM (inactive)
same,GI50,Malme-3M,> 100 µM (inactive)
same,GI50,LOX IMVI,15.1 µM (inactive)
same,GI50,SK-MEL-2,91.6 µM (inactive)
same,GI50,SK-MEL-28,30.3 µM (inactive)
same,GI50,SN12C,> 100 µM (inactive)
same,GI50,UACC-62,53.3 µM (inactive)
same,GI50,IGROV-1,8.39 µM (inactive)
same,GI50,SK-OV-3,19.3 µM (inactive)
same,GI50,EKVX,42.6 µM (inactive)
same,GI50,TK-10,19.2 µM (inactive)
same,GI50,LXFL 529,16.5 µM (inactive)
same,GI50,OVCAR-5,> 100 µM (inactive)
same,GI50,SF-295,14 µM (inactive)
same,GI50,DMS-273,27.5 µM (inactive)
same,GI50,A498,15.5 µM (inactive)
same,GI50,OVCAR-3,12.7 µM (inactive)
same,GI50,HCC 2998,> 100 µM (inactive)
same,GI50,CCRF-CEM,0.853 µM (active)
same,GI50,HT-29,62.5 µM (inactive)
same,GI50,SNB-19,13.6 µM (inactive)
same,GI50,SNB-78,> 100 µM (inactive)
same,GI50,HOP-92,29.4 µM (inactive)
same,GI50,SNB-75,1.76 µM (inactive)
same,GI50,DLD-1,11.2 µM (inactive)
same,GI50,RXF 631,29.9 µM (inactive)
same,GI50,MOLT-4,3.94 µM (inactive)
same,GI50,SF-539,13.8 µM (inactive)
same,GI50,HOP-18,11 µM (inactive)
same,GI50,HCT-116,22 µM (inactive)
same,GI50,SW-620,73.5 µM (inactive)
same,GI50,SK-MEL-5,57.4 µM (inactive)
same,GI50,CAKI-1,8.69 µM (inactive)
same,GI50,UACC-257,> 100 µM (inactive)
same,GI50,A549,18.6 µM (inactive)
same,GI50,DMS-114,8.18 µM (inactive)
same,GI50,M14,> 100 µM (inactive)
same,GI50,HOP-62,> 100 µM (inactive)
same,GI50,786-0,17.7 µM (inactive)
same,GI50,COLO 205,> 100 µM (inactive)
same,GI50,U-251,14 µM (inactive)
same,GI50,K562,56 µM (inactive)
same,GI50,OVCAR-4,15 µM (inactive)
same,GI50,HCT-15,70.5 µM
same,GI50,NCI-H460,21.3 µM (inactive)
same,GI50,RPMI-8226,6.78 µM (inactive)
same,GI50,NCI-H23,10.8 µM (inactive)
same,GI50,OVCAR-8,25 µM (inactive)
same,GI50,NCI-H522,4.41 µM (inactive)
same,GI50,M19-MEL,> 100 µM (inactive)
Cn1cnc([N+](=O)[O-])c1Sc1nc2cccnc2[nH]1,GI50,RXF 393,97.5 µM (inactive)
same,GI50,KM-20L2,> 100 µM (inactive)
same,GI50,SF-268,74.8 µM (inactive)
same,GI50,UO-31,89.7 µM (inactive)
same,GI50,XF498,45.8 µM (inactive)
same,GI50,Malme-3M,> 100 µM (inactive)
same,GI50,LOX IMVI,79.8 µM (inactive)
same,GI50,SK-MEL-28,62.5 µM (inactive)
same,GI50,SN12C,40.3 µM (inactive)
same,GI50,UACC-62,67.6 µM (inactive)
same,GI50,IGROV-1,71.4 µM (inactive)
same,GI50,SK-OV-3,> 100 µM (inactive)
same,GI50,EKVX,28.5 µM (inactive)
same,GI50,TK-10,55.6 µM (inactive)
same,GI50,LXFL 529,39.2 µM (inactive)
same,GI50,OVCAR-5,> 100 µM (inactive)
same,GI50,SF-295,37.7 µM (inactive)
same,GI50,DMS-273,1.61 µM (inactive)
same,GI50,A498,> 100 µM (inactive)
same,GI50,OVCAR-3,> 100 µM (inactive)
same,GI50,HCC 2998,> 100 µM (inactive)
same,GI50,CCRF-CEM,14.5 µM (inactive)
same,GI50,HL-60,12.5 µM (inactive)
same,GI50,HT-29,> 100 µM (inactive)
same,GI50,SNB-19,> 100 µM (inactive)
same,GI50,SNB-78,> 100 µM (inactive)
same,GI50,HOP-92,83 µM (inactive)
same,GI50,SNB-75,> 100 µM (inactive)
same,GI50,DLD-1,25.6 µM (inactive)
same,GI50,RXF 631,1.73 µM (inactive)
same,GI50,MOLT-4,29.9 µM (inactive)
same,GI50,SF-539,> 100 µM (inactive)
same,GI50,HOP-18,70.1 µM (inactive)
same,GI50,HCT-116,90.6 µM (inactive)
same,GI50,SW-620,49.9 µM (inactive)
same,GI50,SK-MEL-5,> 100 µM (inactive)
same,GI50,CAKI-1,18.3 µM (inactive)
same,GI50,UACC-257,91.2 µM (inactive)
same,GI50,NCI-H226,> 100 µM (inactive)
same,GI50,A549,90.2 µM (inactive)
same,GI50,DMS-114,24.8 µM (inactive)
same,GI50,M14,> 100 µM (inactive)
same,GI50,HOP-62,> 100 µM (inactive)
same,GI50,786-0,> 100 µM (inactive)
same,GI50,COLO 205,17.8 µM (inactive)
same,GI50,ACHN,> 100 µM (inactive)
same,GI50,U-251,> 100 µM (inactive)
same,GI50,SR,35.9 µM (inactive)
same,GI50,KM12,54.1 µM (inactive)
same,GI50,K562,22.8 µM (inactive)
same,GI50,OVCAR-4,41.1 µM (inactive)
same,GI50,HCT-15,> 100 µM
same,GI50,NCI-H460,> 100 µM (inactive)
same,GI50,RPMI-8226,68.5 µM (inactive)
same,GI50,NCI-H23,88.7 µM (inactive)
same,GI50,OVCAR-8,86.5 µM (inactive)
Cc1cc(Cl)ccc1NC(=O)CCCC(=O)C1C/C(=N/O)CC/C1=N\O (stereo unspecified),GI50,KM-20L2,> 100 µM (inactive)
same,GI50,SF-268,> 100 µM (inactive)
same,GI50,UO-31,> 100 µM (inactive)
same,GI50,XF498,> 100 µM (inactive)
same,GI50,Malme-3M,> 100 µM (inactive)
same,GI50,SK-MEL-2,> 100 µM (inactive)
same,GI50,SK-MEL-28,> 100 µM (inactive)
same,GI50,SN12C,> 100 µM (inactive)
same,GI50,UACC-62,> 100 µM (inactive)
same,GI50,IGROV-1,> 100 µM (inactive)
same,GI50,SK-OV-3,> 100 µM (inactive)
same,GI50,EKVX,> 100 µM (inactive)
same,GI50,TK-10,> 100 µM (inactive)
same,GI50,LXFL 529,> 100 µM (inactive)
same,GI50,OVCAR-5,> 100 µM (inactive)
same,GI50,SF-295,> 100 µM (inactive)
same,GI50,DMS-273,> 100 µM (inactive)
same,GI50,A498,> 100 µM (inactive)
same,GI50,OVCAR-3,> 100 µM (inactive)
same,GI50,HCC 2998,> 100 µM (inactive)
same,GI50,CCRF-CEM,> 100 µM (inactive)
same,GI50,HL-60,> 100 µM (inactive)
same,GI50,HT-29,> 100 µM (inactive)
same,GI50,SNB-19,> 100 µM (inactive)
same,GI50,SNB-78,> 100 µM (inactive)
same,GI50,HOP-92,> 100 µM (inactive)
same,GI50,SNB-75,> 100 µM (inactive)
same,GI50,DLD-1,> 100 µM (inactive)
same,GI50,RXF 631,> 100 µM (inactive)
same,GI50,MOLT-4,> 100 µM (inactive)
same,GI50,SF-539,> 100 µM (inactive)
same,GI50,HOP-18,> 100 µM (inactive)
same,GI50,HCT-116,> 100 µM (inactive)
same,GI50,SW-620,> 100 µM (inactive)
same,GI50,SK-MEL-5,> 100 µM (inactive)
same,GI50,CAKI-1,> 100 µM (inactive)
same,GI50,UACC-257,> 100 µM (inactive)
same,GI50,NCI-H226,> 100 µM (inactive)
same,GI50,A549,> 100 µM (inactive)
same,GI50,DMS-114,> 100 µM (inactive)
same,GI50,M14,> 100 µM (inactive)
same,GI50,HOP-62,> 100 µM (inactive)
same,GI50,786-0,> 100 µM (inactive)
same,GI50,COLO 205,> 100 µM (inactive)
same,GI50,ACHN,> 100 µM (inactive)
same,GI50,U-251,> 100 µM (inactive)
same,GI50,KM12,> 100 µM (inactive)
same,GI50,K562,> 100 µM (inactive)
same,GI50,OVCAR-4,> 100 µM (inactive)
same,GI50,HCT-15,> 100 µM
same,GI50,NCI-H460,> 100 µM (inactive)
same,GI50,RPMI-8226,> 100 µM (inactive)
same,GI50,NCI-H23,> 100 µM (inactive)
same,GI50,OVCAR-8,> 100 µM (inactive)
same,GI50,NCI-H522,> 100 µM (inactive)
same,GI50,M19-MEL,> 100 µM (inactive)
